Each structure is given as a SMILES string. Some results are limits rather than exact numbers.

Test [1] concerns KRas-mediated phosphorylation of ERK in PSN1 cells. In words: Inhibition of KRas-mediated phosphorylation of ERK (Cisbio HTRF pERK), PSN1 cells. Format: cell-based. Particulars: Homo sapiens. In short, it runs like this:
(§1)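 Overnight culture at 37° C./5% CO2 in RPMI containing 10% FBS, seeded 6,000 cells per well, preceded the assay. A covered 4-hour incubation at room temperature followed, then HTRF signal for phosphorylated ERK was measured.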

In a further test the target is T1, KRas^G12A (Homo sapiens, UniProt P01116, G12A).
T1 construct: Biotinylated KRas (corresponding to amino acids 1-169, produced at Accelegan Inc.); biotin (biotinylated); purchased Accelegan Inc
T1 sequence (P01116 1-169 isoform P01116-2 G12A): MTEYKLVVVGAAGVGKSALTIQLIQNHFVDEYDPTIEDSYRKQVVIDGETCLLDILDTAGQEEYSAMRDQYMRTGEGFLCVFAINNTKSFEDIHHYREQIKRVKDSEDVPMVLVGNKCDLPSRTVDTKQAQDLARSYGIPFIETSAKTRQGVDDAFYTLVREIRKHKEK
Description: KRas binding assay (TR-FRET tracer displacement), KRas G12A. Conditions: single point, 10 nM compound, TR-FRET.

The next test has as its target T2, KRas^G12C (Homo sapiens, UniProt P01116, G12C).
T2 construct: Biotinylated KRas (corresponding to amino acids 1-169, produced at Accelegan Inc.); biotin (biotinylated); purchased Accelegan Inc
In words: KRas binding assay (TR-FRET tracer displacement), KRas G12C. Particulars: single point, 10 nM compound, TR-FRET.

Another test has as its target T3, KRas^G13D (Homo sapiens, UniProt P01116, G13D).
T3 construct: Biotinylated KRas (corresponding to amino acids 1-169, produced at Accelegan Inc.); biotin (biotinylated); purchased Accelegan Inc
Description: KRas binding assay (TR-FRET tracer displacement), KRas G13D. Particulars: single point, 10 nM compound, TR-FRET.

For test [2], the system named is KRas-mediated phosphorylation of ERK in AsPC-1 cells. Description: Inhibition of KRas-mediated phosphorylation of ERK (Cisbio HTRF pERK), AsPC-1 cells. Format: cell-based. Particulars: Homo sapiens, ASPC1, AsPC-1 cells; HTRF pERK. In short, it runs like this: (§2)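 H358, H727, H460 and AsPC-1 cells seeded at 6,000/well, treated 3 hrs with 10-dose 3-fold dilutions from 10 uM (0.8% DMSO); 0.2 uM trametinib as min control. Lysed 40 min at 4° C; lysate incubated 2 hrs at room temperature with d2/cryptate antibodies, HTRF read.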

For a further test, the target named is T4, KRas^G12V (Homo sapiens, UniProt P01116, G12V).
T4 construct: Biotinylated KRas (corresponding to amino acids 1-169, produced at Accelegan Inc.); biotin (biotinylated); purchased Accelegan Inc
T4 sequence (P01116 1-169 isoform P01116-2 G12V): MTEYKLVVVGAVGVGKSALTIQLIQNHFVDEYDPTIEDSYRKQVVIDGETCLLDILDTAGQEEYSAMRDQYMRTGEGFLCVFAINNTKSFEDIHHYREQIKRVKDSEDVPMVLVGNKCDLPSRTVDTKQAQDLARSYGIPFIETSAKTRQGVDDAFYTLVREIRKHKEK
Description: KRas binding assay (TR-FRET tracer displacement), KRas G12V.

The next test concerns the target T5, KRas^G12R (Homo sapiens, UniProt P01116, G12R).
T5 construct: Biotinylated KRas (corresponding to amino acids 1-169, produced at Accelegan Inc.); biotin (biotinylated); purchased Accelegan Inc
In words: KRas binding assay (TR-FRET tracer displacement), KRas G12R.

The subject of test [3] is KRas-mediated phosphorylation of ERK in H358 cells. In words: Inhibition of KRas-mediated phosphorylation of ERK (Cisbio HTRF pERK), H358 cells. Format: cell-based. Conditions: Homo sapiens, NCI-H358, 3 h, single point, 100 nM compound, 3 hrs. In a few lines:
as §2

In test [4] the test system is KRas-mediated phosphorylation of ERK in H727 cells. Description: Inhibition of KRas-mediated phosphorylation of ERK (Cisbio HTRF pERK), H727 cells. Format: cell-based. Conditions: Homo sapiens, NCI-H727, H727 cells; HTRF pERK. In short, it runs like this:
as §2

The next test deals with T6, KRas^G12D (Homo sapiens, UniProt P01116, G12D).
T6 construct: Biotinylated KRas (corresponding to amino acids 1-169, produced at Accelegan Inc.); biotin (biotinylated); purchased Accelegan Inc
T6 sequence (P01116 1-169 isoform P01116-2 G12D): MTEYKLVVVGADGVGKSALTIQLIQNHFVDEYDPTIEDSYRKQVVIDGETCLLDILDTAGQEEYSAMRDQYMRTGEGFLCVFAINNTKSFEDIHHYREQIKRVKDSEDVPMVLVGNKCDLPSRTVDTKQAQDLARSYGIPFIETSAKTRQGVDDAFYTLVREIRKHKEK
Description: KRas binding assay (TR-FRET tracer displacement), KRas G12D.

Another test has as its target T7, KRas^Q61H (Homo sapiens, UniProt P01116, Q61H).
T7 construct: Biotinylated KRas (corresponding to amino acids 1-169, produced at Accelegan Inc.); biotin (biotinylated); purchased Accelegan Inc
In words: KRas binding assay (TR-FRET tracer displacement), KRas Q61H. Conditions: single point, 10 nM compound, TR-FRET.

The target of another test is T8, KRas^WT (Homo sapiens, UniProt P01116).
T8 construct: Biotinylated KRas (corresponding to amino acids 1-169, produced at Accelegan Inc.); biotin (biotinylated); purchased Accelegan Inc
T8 sequence (P01116 1-169 isoform P01116-2): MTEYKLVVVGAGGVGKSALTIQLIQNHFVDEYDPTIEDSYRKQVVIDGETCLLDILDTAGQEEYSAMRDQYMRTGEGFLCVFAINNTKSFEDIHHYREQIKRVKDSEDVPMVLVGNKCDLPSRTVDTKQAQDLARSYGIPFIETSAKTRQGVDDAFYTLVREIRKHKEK
In words: KRas binding assay (TR-FRET tracer displacement), KRas WT. Conditions: single point, 10 nM compound, TR-FRET.

In test [5] the test system is KRas-mediated phosphorylation of ERK in A549 cells. Description: Inhibition of KRas-mediated phosphorylation of ERK (Cisbio HTRF pERK), A549 cells. Format: cell-based. Particulars: Homo sapiens; for inhibition at 0.1 µM: A549, 3 h, single point, 100 nM compound, 3 hrs; for IC50: HTRF pERK. In short, it runs like this:
(§3)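 Phosphorylated ERK was quantified by HTRF using d2-conjugate and Cryptate antibodies added to lysates for 2 hrs at room temperature.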

The target of the next test is T9, KRas^G12S (Homo sapiens, UniProt P01116, G12S).
T9 construct: Biotinylated KRas (corresponding to amino acids 1-169, produced at Accelegan Inc.); biotin (biotinylated); purchased Accelegan Inc
T9 sequence (P01116 1-169 isoform P01116-2 G12S): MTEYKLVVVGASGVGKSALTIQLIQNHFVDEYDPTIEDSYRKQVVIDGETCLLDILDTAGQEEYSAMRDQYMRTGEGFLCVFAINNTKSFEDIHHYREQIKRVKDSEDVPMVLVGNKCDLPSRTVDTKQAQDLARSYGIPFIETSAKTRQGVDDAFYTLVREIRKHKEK
Description: KRas binding assay (TR-FRET tracer displacement), KRas G12S. Conditions: single point, 10 nM compound, TR-FRET.

Test [6] deals with KRas-mediated phosphorylation of ERK in MKN1 cells. In words: Inhibition of KRas-mediated phosphorylation of ERK (Cisbio HTRF pERK), MKN1 cells. Type of test: cell-based. Particulars: Homo sapiens, MKN-1. In short, it runs like this:
as §1

The subject of test [7] is KRas-mediated phosphorylation of ERK in H460 cells. Description: Inhibition of KRas-mediated phosphorylation of ERK (Cisbio HTRF pERK), H460 cells. Particulars: Homo sapiens; for IC50: NCI-H460, HTRF pERK. Format: cell-based. In short, it runs like this:
as §2

In test [8] the test system is KRas-mediated phosphorylation of ERK in HCT116 cells. Description: Inhibition of KRas-mediated phosphorylation of ERK (Cisbio HTRF pERK), HCT116 cells. Format: cell-based. Particulars: Homo sapiens; for IC50: HCT-116, HTRF pERK. In a few lines: as §3

T2 sequence (P01116 1-169 isoform P01116-2 G12C): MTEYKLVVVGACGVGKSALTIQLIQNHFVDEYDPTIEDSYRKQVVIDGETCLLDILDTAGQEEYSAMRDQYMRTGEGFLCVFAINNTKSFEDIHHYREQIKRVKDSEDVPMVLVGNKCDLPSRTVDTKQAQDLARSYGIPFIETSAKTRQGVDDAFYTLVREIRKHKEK
T7 sequence (P01116 1-169 isoform P01116-2 Q61H): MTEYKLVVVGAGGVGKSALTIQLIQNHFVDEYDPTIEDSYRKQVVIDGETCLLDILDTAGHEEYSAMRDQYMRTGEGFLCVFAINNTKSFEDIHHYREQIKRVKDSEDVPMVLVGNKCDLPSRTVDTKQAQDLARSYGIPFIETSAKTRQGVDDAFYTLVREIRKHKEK
T5 sequence (P01116 1-169 isoform P01116-2 G12R): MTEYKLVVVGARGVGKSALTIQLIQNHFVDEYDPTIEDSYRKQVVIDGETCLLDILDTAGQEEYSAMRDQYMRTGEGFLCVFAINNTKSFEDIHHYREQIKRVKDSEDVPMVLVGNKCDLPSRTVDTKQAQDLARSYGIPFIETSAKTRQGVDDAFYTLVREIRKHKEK
T3 sequence (P01116 1-169 isoform P01116-2 G13D): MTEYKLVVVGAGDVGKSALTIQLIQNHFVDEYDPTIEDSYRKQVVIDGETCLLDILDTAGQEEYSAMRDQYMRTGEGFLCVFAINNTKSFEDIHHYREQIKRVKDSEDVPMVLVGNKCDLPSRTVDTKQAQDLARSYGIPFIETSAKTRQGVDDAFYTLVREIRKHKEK

Consider `CCc1c(F)ccc2cc(O)cc(-c3ncc4c(N5CCC[C@]6(C5)C[C@@H](O)C6)nc(OC[C@@]56CCCN5[C@H](COC(=O)N(C)C)CC6)nc4c3F)c12` [Example 713, ((3S,7aS)-7a-(((7-(8-ethyl-7-fluoro-3-hydroxynaphthalen-1-yl)-8-fluoro-4-((2S,4s)-2-hydroxy-6-azaspiro[3.5]nonan-6-yl)pyrido[4,3-d]pyrimidin-2-yl)oxy)methyl)hexahydro-1H-pyrrolizin-3-yl)methyl dimethylcarbamate], for which the IC50 in test [1] was found to be 3580 nM; in test [2], 73 nM; on KRas^G12V it was 2 nM; at KRas^G12R, 4 nM; in test [4], 59 nM; at KRas^G12D it was 3 nM. Further, the IC50 is 22 nM in [6] and 102 nM in [7]. The inhibition at 0.01 µM at KRas^G12A came out at 74%; at KRas^G12C it was 81%; at KRas^G13D it was 67%; at KRas^Q61H it was 69%; at KRas^WT it was 66%; on KRas^G12S it was 76%. Also, the inhibition at 0.1 µM is 60% in test [3] and 25% in test [5].
On to `CCc1c(F)ccc2cc(O)cc(-c3ncc4c(N5CCC[C@]6(C5)C[C@H](O)C6)nc(OC[C@@]56CCCN5[C@H](COC(=O)N(C)C)CC6)nc4c3F)c12` [Example 712, ((3S,7aS)-7a-(((7-(8-ethyl-7-fluoro-3-hydroxynaphthalen-1-yl)-8-fluoro-4-((2R,4r)-2-hydroxy-6-azaspiro[3.5]nonan-6-yl)pyrido[4,3-d]pyrimidin-2-yl)oxy)methyl)hexahydro-1H-pyrrolizin-3-yl)methyl dimethylcarbamate], for which the IC50 in test [1] is 2710 nM; in test [2], 15 nM; at KRas^G12V, less than 2 nM; on KRas^G12R, less than 2 nM; in [4], 30 nM; at KRas^G12D, 2 nM. Moreover, the IC50 in test [6] turned out to be 12 nM; in [7], 22 nM. In addition, the inhibition at 0.01 µM is 88% on KRas^G12A; 94% at KRas^G12C; 90% on KRas^G13D; 90% at KRas^Q61H; 86% at KRas^WT; 90% at KRas^G12S. For the same compound, the inhibition at 0.1 µM was 95% in test [3] and 52% in [5].
Turning to `CCc1c(F)ccc2cc(O)cc(-c3ncc4c(N5CCC[C@@](C)(O)C5)nc(OC[C@@]56CCCN5[C@H](COC(=O)NC(C)C)CC6)nc4c3F)c12` [Example 718, ((3S,7aS)-7a-(((7-(8-ethyl-7-fluoro-3-hydroxynaphthalen-1-yl)-8-fluoro-4-((R)-3-hydroxy-3-methylpiperidin-1-yl)pyrido[4,3-d]pyrimidin-2-yl)oxy)methyl)hexahydro-1H-pyrrolizin-3-yl)methyl isopropylcarbamate], the IC50 in [1] is 1100 nM; in test [2], 17 nM; at KRas^G12V, less than 2 nM; at KRas^G12R, less than 2 nM; in [8], 58 nM; in test [4], 43 nM. For the same compound, the IC50 at KRas^G12D was less than 2 nM; in test [5], 37 nM; in test [6], 2 nM; in [7], 29 nM. For the same compound, the inhibition at 0.01 µM came out at 94% on KRas^G12A; 96% on KRas^G12C; 95% at KRas^G13D; 96% at KRas^Q61H; 94% on KRas^WT; 94% on KRas^G12S.
`CCc1c(F)ccc2cc(O)cc(-c3ncc4c(N5CCC[C@@](C)(O)C5)nc(OC[C@@]56CCCN5[C@H](COC(=O)NC)CC6)nc4c3F)c12` [Example 706, ((3S,7aS)-7a-(((7-(8-ethyl-7-fluoro-3-hydroxynaphthalen-1-yl)-8-fluoro-4-((R)-3-hydroxy-3-methylpiperidin-1-yl)pyrido[4,3-d]pyrimidin-2-yl)oxy)methyl)hexahydro-1H-pyrrolizin-3-yl)methyl methylcarbamate]: the IC50 was 2780 nM in test [1]; 45 nM in test [2]; less than 2 nM at KRas^G12V; 2 nM on KRas^G12R; 85 nM in test [8]; 83 nM in test [4]. In addition, the IC50 came to 3 nM on KRas^G12D, 112 nM in test [5], 9 nM in test [6] and 39 nM in [7]. Besides, the inhibition at 0.01 µM on KRas^G12A stood at 82%; on KRas^G12C it was 89%; at KRas^G13D it was 89%; on KRas^Q61H, 88%; on KRas^WT, 84%; on KRas^G12S, 85%.
`CCc1c(F)ccc2cc(O)cc(-c3ncc4c(N5CCC[C@@](C)(O)C5)nc(OC[C@@]56CCCN5[C@H](COC(=O)N5CCCCC5)CC6)nc4c3F)c12` [Example 721, ((3S,7aS)-7a-(((7-(8-ethyl-7-fluoro-3-hydroxynaphthalen-1-yl)-8-fluoro-4-((R)-3-hydroxy-3-methylpiperidin-1-yl)pyrido[4,3-d]pyrimidin-2-yl)oxy)methyl)hexahydro-1H-pyrrolizin-3-yl)methyl piperidine-1-carboxylate]: the IC50 was 956 nM in [1]; 15 nM in [2]; less than 2 nM on KRas^G12V; less than 2 nM on KRas^G12R; 48 nM in test [8]; 28 nM in [4]. In addition, the IC50 on KRas^G12D is less than 2 nM; in [5] it was 19 nM; in test [6] it was 2 nM; in [7], 12 nM. Also, the inhibition at 0.01 µM is 90% at KRas^G12A; 92% on KRas^G12C; 93% on KRas^G13D; 92% on KRas^Q61H; 89% at KRas^WT; 90% on KRas^G12S.
As to `CCc1c(F)ccc2cc(O)cc(-c3ncc4c(N5CCC(O)C(F)(F)CC5)nc(OC[C@@]56CCCN5C[C@H](F)C6)nc4c3F)c12` (stereo partly drawn) [Example 586, 1-(7-(8-ethyl-7-fluoro-3-hydroxynaphthalen-1-yl)-8-fluoro-2-(((2R,7aS)-2-fluorotetrahydro-1H-pyrrolizin-7a(5H)-yl)methoxy)pyrido[4,3-d]pyrimidin-4-yl)-5,5-difluoroazepan-4-ol], the IC50 in [1] is 3770 nM; in test [2] it was 94 nM; at KRas^G12V it was 3 nM; on KRas^G12R it was 4 nM; in test [4] it was 85 nM; at KRas^G12D, 6 nM. In addition, the IC50 in [5] came out at 65 nM; in test [6], 25 nM. In addition, the inhibition at 0.01 µM on KRas^G12A turned out to be 91%; on KRas^G12C, 93%; at KRas^G13D it was 93%; at KRas^Q61H, 90%; on KRas^WT it was 91%; at KRas^G12S, 93%. The inhibition at 0.1 µM turned out to be 42% in test [8] (HCT-116, 3 h, single point, 100 nM compound, 3 hrs) and 56% in [7] (NCI-H460, 3 h, single point, 100 nM compound, 3 hrs).

The values above are taken from US20260015350A1, “AZAQUINAZOLINE PAN-KRAS INHIBITORS” (Mirati Therapeutics, Inc., priority 2022, published 2026).
